Measurements published in US20240246913A1, “2-CARBOXYL-INDOLE INHIBITORS OF METALLO-BETA-LACTAMASES” (Oxford University Innovation Limited, priority 2021, published 2024).
Structures can show the parent of a compound that is named as a salt. Where two headings read alike, the source gives them in different places.

What was measured:
IMP-1 = IMP-1 (Serratia marcescens, UniProt P52699); test: MBL inhibition, FC-5 fluorescence assay, IMP-1; type: biochemical
Protocol: (§1) Inhibitors were tested using a panel of the clinically relevant B1 MBLs (NDM-1, VIM-1, -2 and IMP-1). Activities were assayed by monitoring the release of a fluorophore following the enzymatic breakdown of the cephalosporin FC-5 (https://pubs.acs.org/doi/abs/10.1021/jm400769b). FC-5 assays were conducted in clear bottomed 384 black well microplates (Greiner); the initial rate of reaction was assessed by monitoring the fluorescence intensity (λex=380 nm and λem=460 nm) using a Pherstar FS (BMG LabTech) plate reader. Initial rates of reaction were determined and dose-response analyses conducted in GraphPad Prism. Dose-response curves were fitted using the log(inhibitor) vs normalized response—variable slope model of GraphPad Prism 12. Each concentration point for routine screening was conducted with 4 intra-plate replicates.

Escherichia coli NDM-1 = test: Antibiotic susceptibility testing (MIC), EC NDM-1; type: cell-based; details: agar or broth dilution (CLSI/EUCAST)
Protocol: (§2) Antibiotic susceptibility testing was performed using the agar or broth dilution method, in line with the Clinical and Laboratory Standards Institute (CLSI) and European Committee on Antimicrobial Susceptibility Testing (EUCAST) requirements.

NDM-1 = NDM-1 (Klebsiella pneumoniae, UniProt C7C422); test: MBL inhibition, FC-5 fluorescence assay, NDM-1; type: biochemical
NDM-1, sequence (C7C422 29-270, looked up, species assumed): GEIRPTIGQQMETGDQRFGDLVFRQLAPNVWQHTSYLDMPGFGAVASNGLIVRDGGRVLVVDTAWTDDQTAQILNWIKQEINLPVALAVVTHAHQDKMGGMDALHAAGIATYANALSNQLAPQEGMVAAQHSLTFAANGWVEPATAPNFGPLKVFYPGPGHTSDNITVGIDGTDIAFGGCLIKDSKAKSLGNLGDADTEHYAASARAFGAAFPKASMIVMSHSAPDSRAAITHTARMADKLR
Protocol: as §1

VIM-2 = VIM-2 (Escherichia coli, UniProt Q5U7L7); test: MBL inhibition, FC-5 fluorescence assay, VIM-2; type: biochemical
Protocol: as §1

VIM-1 = VIM-1 (Pseudomonas aeruginosa, UniProt A0A0F7KYQ8); test: MBL inhibition, FC-5 fluorescence assay, VIM-1; type: biochemical
Protocol: as §1

[1] = test system: Acinetobacter baumannii NDM-1; test: Antibiotic susceptibility testing (MIC), AB NDM-1; type: cell-based; details: agar or broth dilution (CLSI/EUCAST)
Protocol: as §2

Escherichia coli NDM-7 = test: Antibiotic susceptibility testing (MIC), EC NDM-7; type: cell-based; details: agar or broth dilution (CLSI/EUCAST)
Protocol: as §2

[2] = Plasma protein binding, equilibrium dialysis, human plasma; type: in vitro ADME; details: pH 7.4, equilibrium dialysis (RED) 4 hours at 37° C., read-out: Plasma protein binding, fu, Human
Protocol: The fraction of unbound compound (fu) in plasma from human or other animal species was determined by equilibrium dialysis at 37° C. for 4 hours using the Rapid Equilibrium Dialysis (RED) device (ThermoFisher Scientific). The test compound at a concentration of 10 μM was added to plasma and dialyzed against isotonic phosphate buffer (67 mM, pH 7.4) over 4 hours at 37° C. After dialysis, compound concentrations in buffer and plasma were quantified by LC-MS/MS. In parallel the stability of the compound in plasma was determined by incubating drug-spiked plasma (10 μM) at 37° C. for 4 hours, meanwhile the control plasma sample was kept in the freezer. The concentration of the compound in both samples was quantified by LC-MS/MS (Waters Corp, Milford, MA, USA).

[3] = FC-5 cephalosporin substrate, fluorescence, ranges of obtained pIC50, read-out: pIC50 IMP-1 (converted)
[4] = FC-5 cephalosporin substrate, fluorescence, ranges of obtained pIC50, read-out: pIC50 NDM-1 (converted)
[5] = FC-5 cephalosporin substrate, ranges of obtained pIC50, read-out: pIC50 VIM-2 (converted)
[6] = FC-5 cephalosporin substrate, ranges of obtained pIC50, read-out: pIC50 VIM-1 (converted)

IMP-1, sequence (P52699 19-246, looked up, species assumed): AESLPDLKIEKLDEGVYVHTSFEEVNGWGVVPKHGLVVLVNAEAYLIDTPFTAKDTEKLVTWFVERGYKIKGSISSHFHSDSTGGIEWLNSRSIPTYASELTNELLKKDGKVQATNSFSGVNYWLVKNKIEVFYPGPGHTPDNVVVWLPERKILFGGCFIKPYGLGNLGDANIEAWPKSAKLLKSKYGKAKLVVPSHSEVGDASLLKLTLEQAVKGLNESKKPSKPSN

| SMILES | IC50 (IMP-1; [3]) | MIC values EC NDM-1 (Escherichia coli NDM-1) | IC50 (NDM-1; [4]) | IC50 (VIM-2; [5]) | IC50 (VIM-1; [6]) | MIC values AB NDM-1 [1] | MIC values EC NDM-7 (Escherichia coli NDM-7) | IC50 (IMP-1) | IC50 (NDM-1) | IC50 (VIM-2; pIC50 VIM-2, FC-5 cephalosporin substrate, ranges of obtained pIC50) | IC50 (VIM-1; pIC50 VIM-1, FC-5 cephalosporin substrate, ranges of obtained pIC50) | fraction unbound at 4 h, 10 μM [2] |
| --- | --- | --- | --- | --- | --- | --- | --- | --- | --- | --- | --- | --- |
| C[C@@H](c1cccc2c(-c3ccc(CS(C)(=O)=O)c(F)c3)c(C(=O)O)[nH]c12)N1CC2(CNC2)OC1=O [IC-65, (S)-3-(3-fluoro-4-((methylsulfonyl)methyl)phenyl)-7-(1-(6-oxo-5-oxa-2,7-diazaspiro[3.4]octan-7-yl)ethyl)-1H-indole-2-carboxylic acid] | > 10 nM | A (A = MIC values ≤ 1) | 0.1 to 1 nM | 0.1 to 1 nM | 1 to 10 nM | B (B MIC values 2 ÷ 8) | A (A = MIC values ≤ 1) |  |  |  |  |  |
| C=C(CC(=O)NCCc1c[nH]cn1)c1cccc2c(-c3ccc(CS(C)(=O)=O)c(F)c3)c(C(=O)O)[nH]c12 [IC-106, 7-(4-((2-(1H-Imidazol-4(5)-yl)ethyl)amino)-4-oxobut-1-en-2-yl)-3-(3-fluoro-4-((methylsulfonyl)-methyl)phenyl)-1H-indole-2-carboxylic acid] | > 10 nM | C (C = MIC values > 8) | > 10 nM | > 10 nM | > 10 nM | C (C = MIC values > 8) | C (C = MIC values > 8) |  |  |  |  |  |
| CS(=O)(=O)Cc1ccc(-c2c(C(=O)O)[nH]c3c(COCc4ccc(CN)cc4)cccc23)cc1F [IC-85, 7-(((4-(Ammoniomethyl)benzyl)oxy)methyl)-3-(3-fluoro-4-((methylsulfonyl)methyl)phenyl)-1H-indole-2-carboxylate] | > 10 nM |  | 0.1 to 1 nM | > 10 nM | > 10 nM |  |  |  |  |  |  |  |
| CC(c1cnn(CCCN)c1)c1cccc2c(-c3ccc(CS(C)(=O)=O)c(F)c3)c(C(=O)O)[nH]c12 (stereo not drawn) [IC-5, 7-(1-(1-(3-Aminopropyl)-1H-pyrazol-4-yl)ethyl)-3-(3-fluoro-4-((methylsulfonyl)methyl)phenyl)-1H-indole-2-carboxylic acid] | > 10 nM |  | 0.1 to 1 nM | < 0.1 nM | 1 to 10 nM |  |  |  |  |  |  |  |
| CC(NC(=O)C[C@H]1CC[C@H](N)CC1)c1cccc2c(-c3ccc(CS(C)(=O)=O)c(F)c3)c(C(=O)O)[nH]c12 (mixture of isomers) [IC-100, 7-[1-[[2-(4-Aminocyclohexyl)acetyl]amino]ethyl]-3-[3-fluoro-4-(methylsulfonylmethyl)phenyl]-1H-indole-2-carboxylic acid] | > 10 nM |  | > 10 nM | 0.1 to 1 nM | > 10 nM |  |  |  |  |  |  |  |
| CC(c1cccc2c(-c3ccc(CS(C)(=O)=O)c(F)c3)c(C(=O)O)[nH]c12)N1C(=O)c2cc(O)c(O)cc2C1=O (stereo not drawn) [IC-98, 7-[1-(5,6-Dihydroxy-1,3-dioxo-2,3-dihydro-1H-isoindol-2-yl)ethyl]-3-[3-fluoro-4-(methanesulfonylmethyl)phenyl]-1H-indole-2-carboxylic acid] | > 10 nM |  | > 10 nM | > 10 nM | > 10 nM |  |  |  |  |  |  |  |
| CC(OCc1cnn[nH]1)c1cccc2c(-c3ccc(CS(C)(=O)=O)c(F)c3)c(C(=O)O)[nH]c12 (stereo not drawn) [IC-91, 7-(1-((1H-1,2,3-triazol-5-yl)methoxy)ethyl)-3-(3-fluoro-4-((methylsulfonyl)methyl)phenyl)-1H-indole-2-carboxylic acid] | > 10 nM |  | > 10 nM | > 10 nM | > 10 nM |  |  |  |  |  |  |  |
| C[C@@H](c1cccc2c(-c3ccc(CS(C)(=N)=O)c(F)c3)c(C(=O)O)[nH]c12)n1cc(CN2CC(N)C2)oc1=O (stereo partly drawn) [IC-53, 7-[(1S)-1-{5-[(3-aminoazetidin-1-yl)methyl]-2-oxo-2,3-dihydro-1,3-oxazol-3-yl}ethyl]-3-(3-fluoro-4-{[imino(methyl)oxo-λ^6-sulfanyl]methyl}phenyl)-1H-indole-2-carboxylic acid] | > 10 nM | A (A = MIC values ≤ 1) | < 0.1 nM | 1 to 10 nM | 1 to 10 nM | B (B MIC values 2 ÷ 8) | A (A = MIC values ≤ 1) |  |  |  |  |  |
| CC(c1cccc2c(-c3ccc(CS(C)(=O)=O)c(F)c3)c(C(=O)O)[nH]c12)n1cc(CCCN)[nH]c1=O (stereo not drawn) [IC-64, 7-[1-[5-(3-Aminopropyl)-2-oxo-1H-imidazol-3-yl]ethyl]-3-[3-fluoro-4-(methylsulfonylmethyl)phenyl]-1H-indole-2-carboxylic acid] | > 10 nM |  | 1 to 10 nM | 1 to 10 nM | > 10 nM |  |  |  |  |  |  |  |
| CC(c1cnc(Cl)s1)c1cccc2c(-c3ccc(CS(C)(=O)=O)c(F)c3)c(C(=O)O)[nH]c12 (stereo not drawn) [IC-7, 7-(1-(2-Chlorothiazol-5-yl)ethyl)-3-(3-fluoro-4-((methylsulfonyl)methyl)phenyl)-1H-indole-2-carboxylic acid] | 1 to 10 nM |  | 0.1 to 1 nM | 1 to 10 nM | 1 to 10 nM |  |  |  |  |  |  |  |
| CC(NC(=O)Nc1ccc(CN)cc1)c1cccc2c(-c3ccc(CS(C)(=O)=O)c(F)c3)c(C(=O)O)[nH]c12 (stereo not drawn) [IC-102, 7-(1-(3-(4-(aminomethyl)phenyl)ureido)ethyl)-3-(3-fluoro-4-((methylsulfonyl)methyl)phenyl)-1H-indole-2-carboxylic acid] | > 10 nM |  | 1 to 10 nM | 1 to 10 nM | > 10 nM |  |  |  |  |  |  |  |
| CC(c1cnn(C)c1)c1cccc2c(-c3ccc(CS(C)(=O)=O)c(F)c3)c(C(=O)O)[nH]c12 (stereo not drawn) [IC-3, 3-(3-Fluoro-4-((methylsulfonyl)methyl)phenyl)-7-(1-(1-methyl-1H-pyrazol-4-yl)ethyl)-1H-indole-2-carboxylic acid] | > 10 nM |  | 1 to 10 nM | 1 to 10 nM | > 10 nM |  |  |  |  |  |  |  |
| CC(NC(=O)Oc1ccc(CN)cc1)c1cccc2c(-c3ccc(CS(C)(=O)=O)c(F)c3)c(C(=O)O)[nH]c12 (stereo not drawn) [IC-101, 7-(1-(((4-(aminomethyl)phenoxy)carbonyl)amino)ethyl)-3-(3-fluoro-4-((methylsulfonyl)methyl)phenyl)-1H-indole-2-carboxylic acid] |  |  |  |  |  |  |  | > 10 nM | 1 to 10 nM | 1 to 10 nM | > 10 nM |  |
| C[C@@H](c1cccc2c(-c3ccc4c(c3)CC(=O)N4)c(C(=O)O)[nH]c12)N1C[C@]2(C[C@@H](CN)C2)OC1=O [IC-41, 7-((S)-1-((2S,4r)-2-(aminomethyl)-6-oxo-5-oxa-7-azaspiro[3.4]octan-7-yl)ethyl)-3-(2-oxoindolin-5-yl)-1H-indole-2-carboxylic acid] | > 10 nM |  | 0.1 to 1 nM | 1 to 10 nM | 1 to 10 nM |  |  |  |  |  |  |  |
| CC(c1cccc2c(-c3ccc(CS(C)(=O)=O)c(F)c3)c(C(=O)O)[nH]c12)n1cc(CCCNC(=N)N)oc1=O (stereo not drawn) [IC-73, 3-(3-Fluoro-4-((methylsulfonyl)methyl)phenyl)-7-(1-(5-(3-guanidinopropyl)-2-oxooxazol-3(2H)-yl)ethyl)-1H-indole-2-carboxylic acid hydrochloride] | > 10 nM |  | 0.1 to 1 nM | 1 to 10 nM | 1 to 10 nM |  |  |  |  |  |  |  |
| CC(c1cccc2c(-c3ccc(CS(C)(=O)=O)c(F)c3)c(C(=O)O)[nH]c12)N1CC(CCCN)OC1=O (single isomer, unassigned) [IC-84, 7-(1-(5-(3-Aminopropyl)-2-oxooxazolidin-3-yl)ethyl)-3-(3-fluoro-4-((methylsulfonyl)methyl)phenyl)-1H-indole-2-carboxylic acid] | > 10 nM |  | 0.1 to 1 nM | 0.1 to 1 nM | 0.1 to 1 nM |  |  |  |  |  |  |  |
| CC(c1cccc2c(-c3ccc(CS(C)(=O)=O)c(F)c3)c(C(=O)O)[nH]c12)n1cc(CNS(N)(=O)=O)nn1 (stereo not drawn) [IC-8, 3-(3-Fluoro-4-((methylsulfonyl)methyl)phenyl)-7-(1-(4-((sulfamoylamino)methyl)-1H-1,2,3-triazol-1-yl)ethyl)-1H-indole-2-carboxylic acid] | > 10 nM |  | > 10 nM | 1 to 10 nM | > 10 nM |  |  |  |  |  |  | 0.05 to 0.25 |
